These results are taken from patent US20230357189A1, “MODIFIED FLUOROQUINOLONES AND USES THEREOF” (Technion Research & Development Foundation Limited, priority 2021, published 2023).

Values after ≈ are worked out from the molar mass of the structure shown.

The subject of assay [1] is supercoiled (+) pHOT-1 plasmid DNA. Description: DNA cleavage assay (gel electrophoresis). The format is biochemical.
The next assay deals with Escherichia coli 25922. Description: Antibacterial activity, MIC by double-microdilution method. Format: cell-based. The settings on record: Table 2, Escherichia coli 25922; for MIC: read-out: Gram-negative MIC b.
Assay [2] concerns Escherichia coli R477-100. Described as above. The format is cell-based. To be noted: Escherichia coli R477-100; for Gram-negative MIC a / MIC: Table 2, without DTT; for MIC: R477100, read-out: Gram-negative MIC a.
The test system of assay [3] is Staphylococcus Epidermidis. The description is as above. Format: cell-based. The settings on record: for Gram-positive MIC c: Table 2; for MIC: Table 2, read-out: Gram-positive MIC c.
Assay [4] relates to supercoiled (+) pHOT-1 plasmid DNA. Description: DNA cleavage assay (gel electrophoresis). Format: biochemical. The settings on record: for DNase activity (cleavage of supercoiled plasmid, form I to form II): HEPES buffer (50 mM, pH 7.4). The protocol: Removal of Ligands Prior to Electrophoresis was performed when more than 100 μM of Cu(II)-ligand or Co(III) ligand (at any concentration) complexes were employed that is, for DNA cleavage assays that were performed in the absence of any adjuvants. An Amberlyst® 15 (Sigma Aldrich) ion-exchange resin was prepared according to the reported literature [Hettich et al. J. Am. Chem. Soc. 1997, 119 (24), 5638-5647] and stored at −20° C. Before use, 0.5 gram of the exchanger was mixed with 250 μL of water. After stopping the DNA-cleavage reaction by addition of EDTA (54 mM, 15 minutes incubation at 37° C.), 10 μL of the exchanger suspension was added, vortexed, and incubated at 37° C. for 15 minutes before centrifugation and electrophoresis.
DNA cleavage activity of the tested Complexes towards supercoiled (+) pHOT-1 plasmid DNA (TopoGEN) was monitored by gel electrophoresis. In a typical experiment, plasmid DNA (200 ng, […]) in HEPES buffer (50 mM, pH 7.4) was mixed with different concentrations of a tested metal complex in the presence or absence of ascorbic acid (0.32 mM). All stock solutions of buffers and of the metal complexes were prepared using HPLC grade water (ChromAR®). Molecular biology reagent grade water (Sigma) was added up to a total reaction volume of 30 μL before incubation for a given time. For the ascorbic acid assays, the reaction was quenched immediately after incubation with EDTA (54 mM). For analysis, 10 μL of loading buffer (40% sucrose, 100 mM Tris-HCl (pH 7.5), 1 mM EDTA, 0.5 mg·mL^−1 bromophenol blue) was added to the incubated solution and loaded onto an agarose (SeaKem LE) gel [1% in TAE×1 buffer (40 mM Tris, 20 mM acetic acid, 1 mM EDTA)]. Electrophoresis was carried out at 60 V for 2 hours. Gels were stained with 1 μg·mL^−1 ethidium bromide for 30 minutes and de-stained in TAE×1 buffer. DNA bands were visualized with medium-range ultraviolet light using Bio-Rad Gel Doc XR+ imaging system. The quantity of different DNA forms (I or II) was estimated using ImageJ software.
Chem. 2015, 2015 (28), 4722-4730; Kashiba-Iwatsuki et al. FEBS Lett. 1996, 389 (2), 149-15].
The copper complex of compound 2 (2-Cu(II)) was used as the positive control in these assays.

The test system of a further assay is Bacillus Subtilis. Description: Antibacterial activity, MIC by double-microdilution method. Format: cell-based. The settings on record: Bacillus Subtilis; for Gram-positive MIC d / MIC: Table 2; for MIC: read-out: Gram-positive MIC d.
For the next assay, the target named is T1, E. coli DNA gyrase (Escherichia coli, UniProt P0AES4+P0AES6).
T1 construct: purchased TopoGEN
The assay can be described thus: E. coli Gyrase-DNA supercoiling assay. The format is biochemical. To be noted: supercoiling of relaxed pHOT-1 plasmid in presence of ATP; 37° C., 60 minutes. As to the method: The DNA supercoiling reactions were based on the manufacturer protocol (TopoGEN). The amount of DNA gyrase used in each assay was optimized by testing various dilutions of the stock. The amount sufficient to supercoil 250 nanograms (ng) of the substrate in 1 hour at 37° C. was then used for testing the compounds (1.1 U as defined by manufacturer). Assays (30 μL) contained 250 nanograms of relaxed pHOT1 plasmid DNA in Tris-HCl buffer (35 mM), pH 7.5, containing KCl (24 mM), MgCl2 (4 mM), DTT (2 mM), Spermidine (1.8 mM), ATP (1 mM), 6.5% (w/v) glycerol and bovine serum albumin (0.1 mg/ml). Reactions were incubated at 37° C. for 60 minutes. Reaction mixtures were stopped by the addition of 30 μL of loading buffer (40% sucrose, 100 mM Tris·HCl (pH 7.5), 1 mM EDTA, 0.5 mg×mL^−1 bromophenol blue) and worked up using 30 μL of 24:1 chloroform/isoamyl alcohol mixture; the aqueous layer was then analyzed using electrophoresis.
Electrophoresis, gel staining, DNA visualization and DNA quantification were performed as described for the DNA cleavage assays.

Assay [5] relates to Gram-negative and Gram-positive bacteria. Description: Comparative antibacterial activity, all tested bacteria. Format: cell-based. To be noted: for antibacterial activity (in words): MIC, Table 2 and 3. The protocol:
Comparative antibacterial activities were determined by measuring the MIC values by using the double-microdilution method according to the National Committee for Clinical Laboratory Standards (NCCLS). The Luria-Bertani growth medium and polypropylene 96-well plates (Thermo) were used unless otherwise stated. All the experiments were performed in triplicate, and analogous results were obtained in three different experiments.
Compounds 1-6 and their Cu(II) and Co(III) complexes, as well as the pendant-bearing compounds 19-23 and 26 were tested for their comparative antibacterial activity by determining MIC values against two Gram-negative E. coli strains (AR477-100 and 25922) and two Gram-positive strains, Staphylococcus Epidermidis, and Bacillus Subtilis.

T1 sequence (P0AES4 whole entry, one chain of several): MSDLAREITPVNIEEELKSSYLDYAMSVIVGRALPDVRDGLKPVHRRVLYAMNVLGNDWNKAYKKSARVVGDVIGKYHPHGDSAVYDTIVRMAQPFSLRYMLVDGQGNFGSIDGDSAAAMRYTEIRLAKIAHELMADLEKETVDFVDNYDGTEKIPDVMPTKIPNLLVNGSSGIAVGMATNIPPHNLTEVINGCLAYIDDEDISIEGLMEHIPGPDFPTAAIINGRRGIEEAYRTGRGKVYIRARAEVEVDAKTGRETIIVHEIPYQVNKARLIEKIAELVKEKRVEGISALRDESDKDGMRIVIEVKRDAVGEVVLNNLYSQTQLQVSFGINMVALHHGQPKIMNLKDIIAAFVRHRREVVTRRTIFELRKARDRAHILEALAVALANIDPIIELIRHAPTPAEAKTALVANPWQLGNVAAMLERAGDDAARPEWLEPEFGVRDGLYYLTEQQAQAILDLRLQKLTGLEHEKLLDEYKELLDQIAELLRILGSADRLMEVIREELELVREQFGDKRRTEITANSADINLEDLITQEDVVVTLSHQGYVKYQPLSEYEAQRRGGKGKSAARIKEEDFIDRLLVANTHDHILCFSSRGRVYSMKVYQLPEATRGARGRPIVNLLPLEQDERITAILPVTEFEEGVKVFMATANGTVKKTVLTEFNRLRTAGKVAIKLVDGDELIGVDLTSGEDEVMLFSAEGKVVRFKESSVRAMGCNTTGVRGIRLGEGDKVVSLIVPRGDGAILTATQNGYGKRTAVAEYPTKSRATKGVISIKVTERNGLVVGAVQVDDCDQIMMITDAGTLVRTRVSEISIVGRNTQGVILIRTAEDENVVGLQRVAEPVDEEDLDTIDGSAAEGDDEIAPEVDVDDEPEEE

As to `O.O=C(O)c1cn(C2CC2)c2cc(N3CCN(Cc4ccc(CCN5CCNCCNCCNCC5)cc4)CC3)c(F)cc2c1=O.[Cu+2]` [5-Cu(II)], the “oxidative cleavage activity in Tris buffer with DTT” value in assay [1] (Tris-HCl buffer (35 mM, pH 7.5), DTT (2 mM), complex 0.5 mM, 2.5 hours) is recorded as “retain significant oxidative cleavage activity”. Also, the “hydrolytic DNA cleavage in presence of Tris-buffer or spermidine” value in assay [1] (complex 0.5 mM, 2.5 hours) is listed as “inhibit the hydrolytic DNA cleavage of plasmid DNA”. Also, the “Gram-negative MIC b” value in the assay on Escherichia coli 25922 came out at 6 µg/mL. Further, the “Gram-negative MIC a” value in assay [2] turned out to be 6 µg/mL. The “Gram-positive MIC c” value in assay [3] is 6 µg/mL. Also, in assay [4] (absence of adjuvants, 5 hours), the “DNase activity (cleavage of supercoiled plasmid, form I to form II)” value was “significant cleavage enhancement even in relation to the activity of 1-Cu(II) and 4-Cu(II)”. In addition, the “effect of NaN3 on cleavage” value in assay [4] (ascorbic acid (0.32 mM), complex 0.01 mM, scavenger 10 mM, 2 hours) is on record as “no inhibition whatsoever”. Besides, the “effect of hydroxyl radical scavengers DMSO and t-BuOH on cleavage” value in assay [4] (no adjuvants, complex 0.5 mM, scavengers 10 mM, 5 hours) is “no significant inhibitory effect”. Further, the “Gram-positive MIC d” value with Bacillus Subtilis came to 3 µg/mL. Moreover, the IC50 on E. coli DNA gyrase was determined as 180 ± 30 nM.
For the compound `O.O=C(O)c1cn(C2CC2)c2cc(N3CCN(Cc4ccc(CCCN5CCNCCNCCNCC5)cc4)CC3)c(F)cc2c1=O.[Co+3].[OH-]` [6-Co(III)], the “Gram-negative MIC b” value in the assay on Escherichia coli 25922 is 3 µg/mL. Besides, in assay [2], the “Gram-negative MIC a” value was 6 µg/mL. Also, the “Gram-positive MIC c” value in assay [3] was 3 µg/mL. In addition, the “Gram-positive MIC d” value in the assay with Bacillus Subtilis is 3 µg/mL. For the same compound, the “antibacterial activity (in words)” value in assay [5] was “slightly higher activity”.
In the case of `C1CNCCNCCNCCN1.O.[Co+3].[OH-]` [Co(III)-cyclen, reference compound], in assay [1] (50 mM TRIS buffer, 1.8 mM ATP), the “DNase activity in TRIS buffer with ATP” value is recorded as “not inhibited by ATP”. Also, the “DNase activity in TRIS buffer with glutamate” value in assay [1] (50 mM TRIS buffer, 100 mM potassium glutamate) was “very strongly inhibited by glutamate”. For the same compound, the “DNase activity at micromolar concentrations” value in assay [4] (FIG. 32: 0.2 μg DNA over 2 hours (Co(III)-cyclen, 4-Co(III)), 0.6 μg DNA over 10 hours (23-Co(III))) was “inactive”. Also, the “effect of Co(III) complexes on plasmid DNA” value in assay [4] (absence of adjuvants, HEPES pH 7.4, 0.5 hours, micromolar concentrations) was “no effect whatsoever”.
For `O=C(O)c1cn(C2CC2)c2cc(N3CCN(Cc4ccc(CCN5CCNCCNCCNCC5)cc4)CC3)c(F)cc2c1=O` [Compound 5], the MIC worked out at 3 µg/mL (≈ 4.84 µM) in the assay with Escherichia coli 25922, 6 µg/mL (≈ 9.68 µM) in assay [2], 3 µg/mL (≈ 4.84 µM) in assay [3] and 3 µg/mL (≈ 4.84 µM) in the assay with Bacillus Subtilis. In addition, in assay [5], the “antibacterial activity (in words)” value was “slightly higher activity”. Moreover, the IC50 on E. coli DNA gyrase was found to be 150 ± 40 nM.
Regarding `O=C(O)c1cn(C2CC2)c2cc(N3CCN(Cc4ccc(CCCN5CCNCCNCCNCC5)cc4)CC3)c(F)cc2c1=O` [Compound 6], the MIC is 1.5 µg/mL (≈ 2.37 µM) in the assay on Escherichia coli 25922, 3 µg/mL (≈ 4.73 µM) in assay [2], 1.5 µg/mL (≈ 2.37 µM) in assay [3] and 3 µg/mL (≈ 4.73 µM) in the assay on Bacillus Subtilis. Besides, in assay [5], the “antibacterial activity (in words)” value was “slightly higher activity”. Also, on E. coli DNA gyrase, the IC50 amounted to 70 ± 20 nM.
Turning to `N=C(N)NCCN1CCNCCNCCN(CCCCc2ccc(CN3CCN(c4cc5c(cc4F)c(=O)c(C(=O)O)cn5C4CC4)CC3)cc2)CC1` [Compound 22], the “Gram-negative MIC b” value in the assay with Escherichia coli 25922 is 3 µg/mL. In assay [2] (DTT 10 mM), the “Gram-negative MIC, DTT 10 mM” value worked out at 3 µg/mL. The “Gram-negative MIC a” value in assay [2] was 3 µg/mL. In assay [2] (Table 3, DTT 0 mM), the “Gram-negative MIC, DTT 0 mM” value was 3 µg/mL. For the same compound, the “Gram-negative MIC, DTT 2 mM” value in assay [2] (Table 3, DTT 2 mM) worked out at 3 µg/mL. Moreover, in assay [3], the “Gram-positive MIC c” value was 6 µg/mL. For the same compound, the “DNase activity (cleavage of supercoiled plasmid, form I to form II)” value in assay [4] (absence of adjuvants, 5 hours) was “significant DNase activity”. For the same compound, in the assay with Bacillus Subtilis, the “Gram-positive MIC d” value was determined as 1.5 µg/mL. Also, in the assay with Bacillus Subtilis (Table 3, DTT 0 mM), the “Gram-positive MIC, DTT 0 mM” value was found to be 1.5 µg/mL. For the same compound, the “Gram-positive MIC, DTT 2 mM” value in the assay on Bacillus Subtilis (Table 3, DTT 2 mM) turned out to be 1.5 µg/mL. The “Gram-positive MIC, DTT 10 mM” value in the assay on Bacillus Subtilis (Table 3, DTT 10 mM) came out at 1.5 µg/mL. In addition, the “antibacterial activity (in words)” value in assay [5] was “slightly higher activity”. The “better antibacterial activity compared to all the other pendant-bearing metal-free ligands” value in assay [5] (Table 2 MIC) was 4-8 fold.
